# Measurements: US5712260A, “Estramustine formulations with improved pharmaceutical properties” (Pharmacia AB, priority 1994, dated 1998)
# Structures can show the parent of a compound that is named as a salt.
# How the values were obtained:
# [1] = EPS in solution after addition of calcium chloride to solution of EPS and cyclodextrin, pH 3.1, UV spectroscopy (Examples 2-4); format: physicochemical; details: about 1 mg/ml EPS
# Experimental: (§1) The samples were filtered and the quantity of Estramustine-17-phosphate disodium salt in solution was assayed by UV spectroscopy.
# as §1, §1
# [2] = Reprecipitation of EPS by calcium chloride in pH 3.1 buffer, EPS in solution assayed by UV spectroscopy (Example 1); format: physicochemical; details: 640 mcg/ml EPS, pH 3.1 HCl/KCl buffer (I=0.1)
# Experimental: To a solution in a pH 3.1 HCl/KCl buffer (I=0.1), containing 640 mcg/ml of Estramustine-17-phosphate disodium salt (EPS), were added appropriate quantities of calcium chloride in order to have drug:salt molar ratios in the range from 1:0 to 1:1. The samples were filtered and the quantity of Estramustine-17-phosphate sodium salt in solution was assayed by UV spectroscopy.
# [3] = Solubility / reprecipitation of estramustine derivative with cyclodextrins (general statements); format: physicochemical; details: for effects of reprecipitation induced by cations: calcium or other cations
# [4] = Solubilization by cyclodextrins of previously formed precipitate of EPS with calcium, pH 3.1, UV spectroscopy (Examples 5-7); format: physicochemical; details: about 1 mg/ml EPS, CD added to preformed precipitate
# Experimental: The samples were filtered and the quantity of Estramustine disodium salt in solution was assayed by UV spectroscopy.
# as §1, §1
# [5] = oral administration; interaction with foods and drinks; cited from earlier work
SMILES,EPS in solution ([1]; EPS:CD:CaCl2 molar ratio 1:0:1 (no CD)) [%],EPS in solution ([1]; EPS:CD:CaCl2 molar ratio 1:0:2 (no CD)) [%],EPS in solution ([1]; EPS:CD:CaCl2 molar ratio 1:0:4 (no CD)) [%],EPS in solution ([2]; EPS:CaCl2 molar ratio 1:0) [%],EPS in solution ([2]; EPS:CaCl2 molar ratio 1:0.25) [%],EPS in solution ([2]; EPS:CaCl2 molar ratio 1:0.5) [%],EPS in solution ([2]; EPS:CaCl2 molar ratio 1:1) [%],solubility of the drug itself ([3]; when mixed with cyclodextrins),"effects of reprecipitation induced by cations ([3]; with cyclodextrins, disodium salt)",EPS in solution ([4]; EPS:CaCl2:CD molar ratio 1:1:0 (no CD)) [%],EPS in solution ([4]; EPS:CaCl2:CD molar ratio 1:2:0 (no CD)) [%],EPS in solution ([4]; EPS:CaCl2:CD molar ratio 1:4:0 (no CD)) [%],reprecipitation of the drug [5],effect of reprecipitation by anionic species ([3]; with cyclodextrins),redissolution of already formed precipitate with calcium ([3]; with cyclodextrins),"passage in solution of the drug in the presence of calcium ions ([3]; with cyclodextrins, calcium ions in dissolution medium)",effects of reprecipitation induced by cations ([3]; with cyclodextrins)
"C[C@]12CC[C@@H]3c4ccc(OC(=O)N(CCCl)CCCl)cc4CC[C@H]3[C@@H]1CC[C@@H]2OP(=O)(O)O [EPS, Estramustine-17-phosphate disodium salt]",16,4,4,100,42,21,14,does not change in a significant way,quite negligible,16,4,4,induced by cations and in particular by calcium ions,,,,
C[C@H](N)C(=O)O[C@H]1CC[C@H]2[C@@H]3CCc4cc(OC(=O)N(CCCl)CCCl)ccc4[C@H]3CC[C@]12C [Estramustine-17-L-alaninate],,,,,,,,,,,,,"induced by anionic species, such as chlorine ions",avoiding any effect of reprecipitation by anionic species,,,
C[C@]12CC[C@@H]3c4ccc(OC(=O)N(CCCl)CCCl)cc4CC[C@H]3[C@@H]1CC[C@@H]2OP(=O)(O)O [Estramustine-17-phosphate],,,,,,,,,,,,,,,redissolve the already formed precipitate,permit the passage in solution of the drug,avoid the reprecipitation
